Laboratory results as given in patent US11691960B2, “2-[thiophen-2-yl)formamido]-N-(phenyl)-2-methylpropanamide derivatives and the use thereof as medicament” (Boehringer Ingelheim International GmbH, priority 2020, dated 2023).

Experiments:
[1] = Assay F: tissue distribution in mouse after oral application; format: in vivo
Text: (§1) In order to estimate the amount of administered drug to enter the brain, the brain to plasma ratio is used as surrogate parameter. As efflux transporters (e.g. P-gp) are located at the blood-brain barrier, compounds acting as substrates will be actively transported out of the brain. As these efflux transporters are not expressed in muscle tissue, the relative distribution ratio of compound between muscle and brain tissue can be used as indication for an efflux in vivo in rats or mice. In case there is no in vivo efflux detectable (in rats/mice) and in case there is no efflux in vitro (MDCK-MDR1 (P-gp)), a brain exposure in patients can be expected [see Table 7 for comparison of in vitro efflux data (MDCK-MDR1 assay) and in vivo efflux data (tissue distribution in rat/mouse after oral application)].
(§2) Assay F. Determination of Tissue Distribution in Rat/Mouse After Oral Application of Compounds
Male Han Wistar rats or C57BL/6NRj mice were orally dosed with 10 μmol/kg of compound to be investigated, suspended in 0.5% Natrosol/0.015% Tween80. Blood was collected in K3EDTA containing vials from the sublingual vein in short time Isoflurane anesthesia in rat or from the saphenous vein in conscious mice at […], 0.25, 0.5, 1, 2, 3, 4, 8 and 24 hours post administration. Subsequently, plasma was prepared by centrifugation for 5 min at 5000 rpm and stored at −20° C. […]

[2] = molecular target: human Factor Xa (Homo sapiens (Human), UniProt P00742); experiment: Assay C: human Factor Xa chromogenic substrate assay; format: biochemical; details: for IC50: human Factor Xa 0.86 nM, chromogenic substrate S2765; for Selectivity Assay C/Assay A: ratio IC50 Factor Xa / IC50 IDO1
Description: Assay C. In Vitro Testing of Human Factor Xa Potency:
Measurement of active human Factor Xa using a specific chromogenic substrate which is labeled with a p-nitro-anilino group (pNA). The cleavage in between the binding of the peptide substrate and the pNA-group is followed by a color change, which can be detected at 405 nm. The amount of cleaved substrate is directly proportional to the amount of active Xa.
[…] (100 U) human Factor Xa (Enzyme Research Laboratories; HFXa1011) were solved in 0.444 ml H2O (Millipore), which accords to a stock solution of 19.28 μM or 225 U/ml. Further dilutions were made in the assay buffer (Tris 100 mM, NaCL 150 mM, adjusted to a pH of 7.8 with HCL, containing 0.1% BSA and 0.05% Tween20). 25 mg (1 vial) of the chromogenic substrate S2765 (Chromogenix; S2765) was solved in 3.5 ml H2O (Millipore) to achieve a stock solution of 10 mM.
Compounds were solved and diluted in DMSO where the final dilution in the assay is 1:10 resulting in a final concentration of 1% DMSO.
• the prefinal dilution step was 1:10 in the assay buffer containing 11% DMSO resulting in 10% DMSO • final dilution in the assay is 1:10 resulting in a final concentration of 1% DMSO
Compounds were tested at final concentrations of 10 μM to 0.003 nM or lower. 5 μl human factor Xa (final concentration 0.86 nM), 2 μl compound dilution or assay buffer (containing 10% DMSO) and 8 μl assay buffer were pipetted in triplicates into a 384-well plate and incubated in the Thermomix at 24° C. for 10 minutes.
After addition of 5 μl chromogenic substrate (final concentration 0.5 mM) the enzyme-substrate reaction started and the kinetic measurement with the SpectraMax Monochromator was started within 1-2 minutes. • Parameter of measurement: (Spectra ax, Monochromator) • Absorbance; 1.LM 405 nM • Kinetic: 16 min each 2nd minute (9 times) • Negative Control (NC) 5 μl human factor Xa+10 μl assay buffer+5 μl Substrate • Positive Control (PC): 5 μl human factor Xa+2 μl Nafamostat (commercially available, final concentration: 1 μM)+8 μl assay buffer+5 μl Substrate • Blank (optional): 15 μl assay buffer+5 μl Substrate
Calculation of IC50, KI and the % effect at the highest concentration (Ratio)
For the calculation the average of the Vmax-values in between 120 sec to 720 sec were taken.
A x/y-Plot was created: x=log (M, Compound); y=vmax (drfu/min)
The data were analyzed with the curve fitting model: log (inhibitor) vs. response—Variable slope (four parameters)
The results of this fit were Top, Bottom, Log (IC50, M), Hillslope and IC50 (M)

[3] = Assay F: tissue distribution in rat after oral application; format: in vivo
Text: as §1, §2
Male Han Wistar rats or C57BL/6NRj mice were orally dosed with 10 μmol/kg of compound to be investigated, suspended in 0.5% Natrosol/0.015% Tween80. Blood was collected in K3EDTA containing vials from the sublingual vein in short time Isoflurane anesthesia in rat or from the saphenous vein in conscious mice at […], 0.25, 0.5, 1, 2, 3, 4, 8 and 24 hours post administration. Subsequently, plasma was prepared by centrifugation for 5 min at 5000 rpm and stored at −20° C.
Tissues and CSF were sampled in anaesthetized animals. CSF was collected from the cisterna magna. Following exsanguination a femoral muscle sample was collected. Cranium and the dura matter were removed and the complete brain was collected. Before transfer of the muscle and brain sample to pre-weight homogenization devices (Precellys®) the tissues were rinsed with saline and blotted dry.
For homogenization, four parts (v/w) homogenization buffer (37.5% acetonitrile, 37.5% methanol, 25% water) were added. Tissues were homogenized with a Precellys® Evolution homogenizer. Five μL of the homogenate were added to 70 μL of a 1 to 1 (v/v) mixture of acetonitrile and methanol and frozen for at least 10 min at −18° C.
For final sample preparation, the sample was centrifuged at 4000 rpm for 1 min, and an aliquot of the resulting supernatant (30 μL) was mixed with 170 μL formic acid prior to injection to LC-MS. Calibration curves were prepared accordingly in rat and mouse plasma, respectively. All animal care and experimental procedures at Boehringer Ingelheim were conducted in compliance with the German and European Animal Welfare Act (EU Directive 2010/63/EU) and were approved by the Regierungspräsidium Tübingen as the responsible local German authority (reference number 35/9185.81-8/14-009-G).

[4] = oral 10 μmol/kg, muscle/brain tissue distribution

Chain of human Factor Xa (P00742 235-488): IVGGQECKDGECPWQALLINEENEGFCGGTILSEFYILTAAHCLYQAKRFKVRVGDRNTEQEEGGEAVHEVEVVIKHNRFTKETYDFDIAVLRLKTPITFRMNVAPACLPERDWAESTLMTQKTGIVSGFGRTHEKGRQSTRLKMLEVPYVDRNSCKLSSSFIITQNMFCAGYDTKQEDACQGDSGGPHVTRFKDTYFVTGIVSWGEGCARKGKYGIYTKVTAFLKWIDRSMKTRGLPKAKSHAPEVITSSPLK
Chain of human Factor Xa (P00742 41-179 partner): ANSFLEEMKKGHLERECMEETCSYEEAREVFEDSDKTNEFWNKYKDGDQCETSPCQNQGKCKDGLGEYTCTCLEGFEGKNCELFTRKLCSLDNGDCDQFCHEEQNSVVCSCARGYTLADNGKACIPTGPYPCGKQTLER

SMILES: CC(C)(NC(=O)c1ccc(Cl)s1)C(=O)Nc1ccc(Cl)c(F)c1 [Example 3, 2-[(5-chlorothiophen-2-yl)formamido]-N-(4-chloro-3-fluorophenyl)-2-methylpropanamide]
- in vivo efflux (in words) ([1]; after oral application): neither in vitro nor in vivo efflux
- in vivo efflux (Assay F) [1, 4]: 0.60 (mouse)
- IC50 [2]: > 10 µM
- Selectivity Assay C/Assay A [2]: >55

SMILES: CC(C)(NC(=O)c1ccc(Cl)s1)C(=O)Nc1ccc(Br)cc1 [Example 4, 2-[(5-chlorothiophen-2-yl)formamido]-N-(4-bromophenyl)-2-methylpropanamide]
- in vivo efflux (in words) ([3]; after oral application): neither in vitro nor in vivo efflux
- in vivo efflux (Assay F) [3, 4]: 0.50 (rat)
- IC50 [2]: > 10 µM
- Selectivity Assay C/Assay A [2]: >42
